Laboratory results taken from patent US20140094456A1, “ANTI-FIBROTIC PYRIDINONES” (InterMune, Inc., priority 2012, published 2014).

What follows are compounds tested on endothelin-1 (ET-1) production (assay: ET-1 assay: inhibitory effect on TGF-b induced endothelin-1 production in fibroblasts (ELISA)). Settings: Homo sapiens, Fibroblast, inhibition of stimulant (TGFb, serum, LPA etc) induced ET-1 production in fibroblasts.
Assay type: cell-based, human
Experimental: Assay of Inhibitory Effect on TGF-b Induced Endothelin-1 Production
Fibroblasts (primary human lung and dermal, HFL-1, 3T3 etc) are seeded in 96-well plates at ˜15000 cells/well and serum starved for 0-48 hours. After media exchange, compounds serially diluted in DMSO are added to the cells. After a brief incubation of ˜30 min, stimulants (TGFb, serum, LPA etc) are added followed by further incubation for 16-48 hours. Media is then harvested and stored frozen in plate format for later endothelin-1 (ET-1) determination by ELISA. Toxicity measurements are made using the ATPlite kit (Perkin-Elmer). ET-1 is quantified using an ELISA kit (R&D Systems). The amount of ET-1 produced in the assay wells are back-calculated using the ELISA standard. The ability of a compound to inhibit ET-1 production is typically analyzed by fitting dose-response curves to a 4-parameter logistic function to obtain an EC50 value. A measure of cytotoxicity (CC50) is likewise reported from the same experiment using the ATPlite data.
(§1) Compounds of some embodiments were prepared according to synthetic methods described herein and assay data obtained for EC50 against ET-1. The assay data obtained is presented in Table 2, in which A=less than 50 μM, B=greater than or equal to 50 μM and less than or equal to 200 μM; and C=greater than 200 μM.
Work on CC(=O)c1ccc(=O)n(-c2ccc(OC(C)C)cc2)c1 [Compound 10] yielded an EC50 of over 200 µM. COCCOCCOCCOc1ccc(-n2cc(C)ccc2=O)cc1 [Compound 21] was tested, and the EC50 was over 200 µM. COCCOCCOCCOc1cccc(-n2cc(C)ccc2=O)c1 [Compound 22] gave an EC50 of over 200 µM. CCOC(=O)Nc1cc(=O)n(-c2ccc(OC(F)(F)F)cc2)cc1-c1ccc(F)cc1 [Compound 114] was tested, and the EC50 was over 200 µM. Work on CCCCOC(=O)Nc1cc(=O)n(-c2ccc(OC(F)(F)F)cc2)cc1-c1cnn(C)c1 [Compound 136] yielded an EC50 of 50 to 200 µM. With Cn1cc(-c2cn(-c3ccc(OC(F)(F)F)cc3)c(=O)cc2NC(=O)OCc2ccccc2)cn1 [Compound 140] the EC50 was 50 to 200 µM. Compound Cc1cc(=O)n(-c2ccc(C(F)(F)F)cc2)cc1-c1ccccc1 [Compound 170] has an EC50 of under 50 µM. Compound CN1C(=O)COc2c(-c3cnn(C)c3)cn(-c3ccc(OC(F)(F)F)cc3)c(=O)c21 [Compound 396] has an EC50 of over 200 µM. COCCOc1ccc(Oc2cc(=O)n(-c3ccc(OC(F)(F)F)cc3)cc2-c2cnn(C)c2)cc1 [Compound 533] gave an EC50 of 50 to 200 µM. In the case of O=c1c2c(ncn2C2CC2)c(-c2cn[nH]c2)cn1-c1ccc(OC(F)(F)F)cc1 [Compound 650], the EC50 is reported as under 50 µM.

Same assay, conditions: inhibition of stimulant (TGFb, serum, LPA etc) induced ET-1 production in fibroblasts
CC(C)Oc1ccc(-n2cc(-c3ccc(F)cc3)ccc2=O)cc1 [Compound 288] was tested, and the EC50 was 50 to 200 µM.

Each compound was assayed on Fibroblasts (primary human lung and dermal, HFL-1, 3T3 etc) (assay: Cell proliferation assay: inhibitory effect on cell proliferation (BrdU incorporation) in fibroblasts). Settings: HFL1, 50% inhibition of stimulant (LPA, TGFb, serum etc) induced increase of BrdU incorporation in fibroblasts.
Assay type: cell-based
Experimental: Assay of Inhibitory Effect on Cell Proliferation (BrdU Incorporation)
Fibroblasts (primary human lung and dermal, HFL-1, 3T3 etc) were plated on a 96-well plate and serum starved for 24-48 hours. The media were then exchanged for media containing stimulants (LPA, TGFb, serum etc) and cultured further for 16-24 hours before BrdU addition. After culturing for another 8 hours, cells were washed with PBS and the amount of BrdU incorporated into the cells was assayed by absorbance at 450 nm using the Cell proliferation ELISA system (RPN250, Amersham LIFE SCIENCE). The difference between the amount of BrdU incorporated in the stimulant-added well and the amount of BrdU incorporated in the well containing no stimulant represented the amount of BrdU incorporation accelerated by stimulant. The increase of BrdU incorporation without the addition of test compounds was set as 100% and the concentration of compound with 50% inhibition in the increase of BrdU incorporation (IC50 value) was determined. The test compounds were added 0-30 min before stimulant addition.
as §1, with “IC50 for BrdU inhibition.” for “EC50 against ET-1.”, “3,” for “2,”
COCCOCCOCCOc1ccc(-n2cc(C)ccc2=O)cc1 [Compound 21] was tested, and the IC50 was over 200 µM. O=c1c2c(ncn2C2CC2)c(-c2cn[nH]c2)cn1-c1ccc(OC(F)(F)F)cc1 [Compound 650] was tested, and the IC50 was under 50 µM.
